Data published in PubChem BioAssay (NCI).
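Assay format: 96-well plates, 48-hour exposure. GI50 is the concentration that inhibits growth by half. TGI denotes the concentration required for complete inhibition of growth.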

Columns and labels:
Assay in all cases: NCI-60 cell line screen, 48 h
UO-31 renal = system: UO-31 renal
MALME-3M melanoma = system: MALME-3M melanoma
SF-295 CNS = system: SF-295 CNS
OVCAR-3 ovarian = system: OVCAR-3 ovarian
PC-3 prostate = system: PC-3 prostate
SNB-75 CNS = system: SNB-75 CNS
CAKI-1 renal = system: CAKI-1 renal
MOLT-4 leukemia = system: MOLT-4 leukemia
OVCAR-4 ovarian = system: OVCAR-4 ovarian
786-0 renal = system: 786-0 renal

| Compound | GI50 (UO-31 renal) [µM] | TGI (UO-31 renal) [µM] | GI50 (MALME-3M melanoma) [µM] | TGI (MALME-3M melanoma) [µM] | GI50 (SF-295 CNS) [µM] | TGI (SF-295 CNS) [µM] | GI50 (OVCAR-3 ovarian) [µM] | TGI (OVCAR-3 ovarian) [µM] | GI50 (PC-3 prostate) [µM] | TGI (PC-3 prostate) [µM] | GI50 (SNB-75 CNS) [µM] | TGI (SNB-75 CNS) [µM] | GI50 (CAKI-1 renal) [µM] | TGI (CAKI-1 renal) [µM] | GI50 (MOLT-4 leukemia) [µM] | TGI (MOLT-4 leukemia) [µM] | GI50 (OVCAR-4 ovarian) [µM] | TGI (OVCAR-4 ovarian) [µM] | GI50 (786-0 renal) [µM] | TGI (786-0 renal) [µM] |
| --- | --- | --- | --- | --- | --- | --- | --- | --- | --- | --- | --- | --- | --- | --- | --- | --- | --- | --- | --- | --- |
| N#Cc1cnc2cc(OC[C@@H](O)CO)c(NC(=O)CC3CSSC3)cc2c1Nc1ccc(OCc2cccc(F)c2)c(Cl)c1 | 1.63 | 5.5 | 0.215 | 0.938 | 0.88 | 1.78 | 0.284 | 0.913 | 0.0888 | 0.198 | 0.738 | 1.58 | 6.34 | 18.9 | 0.0736 | 0.174 | 0.128 | 0.381 | 1.38 | 4.57 |
| CC(C)c1ccc(C(=O)Nc2sc3c(c2C#N)CCC(=O)C3)cc1 | 0.252 | 0.982 | 1.17 | 3.82 | 1.36 | > 28.1 | 0.396 | 1.61 | 0.263 | > 23.7 | 0.601 | 5.38 | 0.343 | 1.95 | 0.412 | > 100 | 0.294 | 1.36 | 0.67 | > 21.8 |
| C[C@]1(CO)[C@H]2CC[C@@]34C=C[C@@](CO)(CC[C@H]3[C@]2(C)CC[C@H]1O)C4 | – | > 100 | – | > 100 | – | > 100 | – | > 100 | – | > 100 | – | > 100 | – | > 100 | – | 48.9 | – | > 100 | – | > 100 |
| CC(C)c1ccc(/C(C(=O)O)=C(\O)C(=O)O)cc1 | – | > 100 | – | > 100 | – | > 100 | – | > 100 | – | > 100 | – | > 100 | – | > 100 | – | > 100 | – | > 100 | – | > 100 |
| NC(=O)c1cc(Br)cc(C2CCCCC2)c1O | 2.51 | 18.3 | 19.6 | 35.9 | 11.3 | 24.5 | 13.2 | 25.9 | 12.8 | 26.4 | 11.9 | 25.9 | 6.15 | 20.3 | 13.9 | 34.5 | 12.9 | 25.6 | 11.8 | 24.4 |
| O=C(c1ccc2ncc(-c3nc(NC4CC4)ncc3F)n2c1)N1CCOCC1 | 2.66 | 13.6 | 3.33 | 8.35 | 2.64 | > 100 | 2.21 | 7.22 | 2.14 | 8.86 | 1.47 | 3.58 | 1.33 | 62.8 | 2.48 | 7.1 | 2.8 | 10.9 | 3.06 | 27.5 |
| CCOc1cc2c(NCCCN(CCO)CCO)ncnc2c(OCC)c1OCC | – | > 100 | – | > 100 | – | > 100 | – | > 100 | – | > 100 | – | > 100 | – | > 100 | – | > 100 | – | > 100 | – | > 100 |
| Cn1c(=O)c(Oc2ccccc2F)cc2cnc(NC3CCOCC3)nc21 | > 14.4 | > 25 | > 25 | > 25 | > 25 | > 25 | > 25 | > 25 | > 25 | > 25 | > 19.8 | > 25 | > 25 | > 25 | > 25 | > 25 | > 25 | > 25 | > 25 | > 25 |
| CN(C)N1C(=O)c2ccccc2NC1c1ccccc1 (stereo not given) | – | > 100 | – | > 100 | – | > 100 | – | > 100 | – | > 100 | – | > 100 | – | > 100 | – | > 100 | – | > 100 | – | > 100 |
